Results on 13 compounds are retold here after publication PMC8199001, “Design, Synthesis, and Biological Evaluation of Novel 6H-Benzo[c]chromen-6-one Derivatives as Potential Phosphodiesterase II Inhibitors” (International Journal of Molecular Sciences, 2021).

Entries after “also recorded” stand apart in the source; their conditions may differ.

One series has as its target PDE2 (Homo sapiens, UniProt O00408). As to the kind of experiment: In vitro PDE2 enzymatic inhibition assay (Bio-cAMP substrate, AlphaScreen detection).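 For all read-outs here: enzyme reaction run 0.5 h, then anti-cAMP acceptor and streptavidin donor beads added for 1 h in the dark before plate reading, compounds serially diluted from DMSO stock.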 In kind it is biochemical. The settings on record: for PDE2 inhibitory activity (result in words): enzyme level. Background: Alpha assays give light when donor and acceptor beads are brought close together.
A further series has as its system HT-22 cells. As to the kind of experiment: Protection of HT-22 cells against corticosterone-induced neurotoxicity (cell viability). In kind it is cell-based. The text has this: Corticosterone can induce PDE2A, PDE3B, PDE4A, PDE4D, PDE10, and PDE11 expression in HT-22 cells, which results in significant cell lesion. Thus, corticosterone-induced HT-22 neurotoxicity was generally employed as classical cell model to screen PDE-inhibitors for curing neurodegenerative disease, such as AD and PD.
To determine whether compound 1f could promote neuron proliferation and protect HT-22 cells against corticosterone-induced neurotoxicity by PDE2 inhibition, the viability of HT-22 cells was measured in the presence of 100 μM corticosterone (positive control), corticosterone absence (control), and different concentrations of 1f.
We added 943 µL of DMSO solution to 8.2 mg of dexamethasone acetate to obtain a 20 mM stock solution, froze it at −20 °C, and diluted it to 2 mM with serum-containing medium before use. The test compound was dissolved in DMSO to obtain a 20 mM stock solution and stored at −20 °C. Diluted with serum-containing medium to a concentration of 2 × 100, 2 × 50, 2 × 25, 2 × 12.5, 2 × 6.25, 2 × 3.125 μM before use.
After resuscitation, HT-22 cells were cultured in DMEM medium (containing 10% FBS) at 37 °C with 5% CO2. After the cells grew to more than 80% cell fusion, we passaged and seeded the plate, and the density of each well should be 10,000 cells/100 μL/well and cultured for 24 h. After the cells adhered to the wall, drug intervention was given.
10 µL solution of 2 mM dexamethasone acetate was cultured at 37 °C for 30 min. 100 µL drug solution of 2 × 100, 2 × 50, 2 × 25, 2 × 12.5, 2 × 6.25, and 2 × 3.125 μM were added to make the final concentration of dexamethasone acetate 100 μM, and the final concentrations of the drug were 100, 50, 25, 12.5, 6.25, 3.125 μM. After preparation, it took another 24 h to continue the culture. […]
After the incubation, 50 µL of MTT was added to each well, and it needed another 4 h to incubate. […] Finally, the wavelength A 490 was measured. The data were expressed as mean ± sd (n = 5), and one-way anova analysis of variance was used for data statistics; p < 0.05 is defined as a significant difference.

[1] abbreviates: in vitro, Bio-cAMP as substrate, mean of at least three experiments.

Sequence of PDE2 (O00408 whole entry): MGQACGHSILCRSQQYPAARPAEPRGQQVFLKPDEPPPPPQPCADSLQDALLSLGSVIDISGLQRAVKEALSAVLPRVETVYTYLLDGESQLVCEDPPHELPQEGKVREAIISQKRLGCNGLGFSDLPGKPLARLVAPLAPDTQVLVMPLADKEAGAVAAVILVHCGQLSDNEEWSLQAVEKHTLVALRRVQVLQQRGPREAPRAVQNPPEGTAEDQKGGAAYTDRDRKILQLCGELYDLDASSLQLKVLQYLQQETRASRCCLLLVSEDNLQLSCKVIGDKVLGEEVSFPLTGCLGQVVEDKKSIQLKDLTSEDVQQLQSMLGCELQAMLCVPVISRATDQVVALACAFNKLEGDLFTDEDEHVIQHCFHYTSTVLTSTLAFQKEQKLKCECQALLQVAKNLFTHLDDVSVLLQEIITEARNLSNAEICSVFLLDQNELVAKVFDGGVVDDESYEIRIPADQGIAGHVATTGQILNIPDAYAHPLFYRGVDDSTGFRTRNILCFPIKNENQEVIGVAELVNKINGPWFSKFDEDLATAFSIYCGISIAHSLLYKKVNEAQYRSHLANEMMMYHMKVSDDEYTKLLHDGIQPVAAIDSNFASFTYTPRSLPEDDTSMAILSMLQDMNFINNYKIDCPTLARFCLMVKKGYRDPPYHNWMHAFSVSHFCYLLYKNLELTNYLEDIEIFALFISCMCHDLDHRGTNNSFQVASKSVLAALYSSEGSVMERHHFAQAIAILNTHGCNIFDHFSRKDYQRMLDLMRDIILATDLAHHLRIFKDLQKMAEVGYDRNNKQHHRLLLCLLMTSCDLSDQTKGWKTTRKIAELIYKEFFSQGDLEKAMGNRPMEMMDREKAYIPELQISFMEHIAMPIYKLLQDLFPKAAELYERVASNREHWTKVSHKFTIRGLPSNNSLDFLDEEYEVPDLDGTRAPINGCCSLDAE
Procedure for PDE2: Preparation of 1*Rection Buffer: we took 1 mL 10*Rection Buffer, added 9 mL ultra-pure water to swirl and mix well, and put it on ice; preparation of PDE2 solution: 210 μL of 1*Rection Buffer were added into a centrifuge tube, then 30 μL PDE2 were added, mixed well, equal to 8-times dilution, and placed on ice; preparation of compound solution with gradient concentration: DMSO was used as the solvent to prepare 10 mM compound solution, and then diluted with 1*Rection Buffer.
We took 2 μL of the diluted compound solution of each concentration into the microplate, added 4 μL PDE2 solution, numbered them A1–A9, added 2 μL 1*Rection Buffer and 4 μL PDE2 into A10, added 2 μL compound solution and 4 μL 1*Rection Buffer to A11, added 6 μL 1*Rection Buffer to A13, and ensured the three groups are parallel to each other. […] The reaction time was 0.5 h in the microporous plate thermostatic oscillator.
Anti-Camp Alohascreen Acceptor and Streptavidin Coated Donor Bead were purchased from Perkin Elmer Company according to response volume: 1* Immunoassay Buffer 549.32 μL and 3.70 μL anti-cAMP AlohaScreen Acceptor were collected under dark conditions. We took 1.98 μL Streptavidin coated Donor Bead, mixed well, added 15 μL mixture to each well after 1 h reaction, and reacted it in the dark for 1 h. After the reaction, we tested it with multilabel microplate detector.

What is called melting point is the temperature of the solid-liquid transition. As usually defined, the IC50 is the concentration needed to halve the response being measured. `CCCCOc1ccc2c(c1)oc(=O)c1ccccc12` [Compound 1f, 3-butoxy-6H-benzo[c]chromen-6-one] had a melting point of 53.6 to 55.5 °C. Moreover, the “PDE2 inhibitory activity (result in words)” value on PDE2 is listed as “good PDE2 inhibitory activity”. This compound also registered an IC50 against PDE2 (setting [1]) of 3.67 ± 0.47 µM. For the same compound, in the series with HT-22 cells (100 μM corticosterone, compound 6.25~25 μM, 24 h, dose-dependent), the “Cell viability of HT-22 cells exposed to corticosterone (result in words)” value was “protected cells against corticosterone (CORT)-induced cytotoxicity in a concentration-dependent manner; also recorded: significantly increased cell viability; also recorded: protect HT-22 cells from corticosterone-induced death”. Moreover, the “Best concentration for increasing HT-22 cell viability” value in the series on HT-22 cells (100 μM corticosterone, p < 0.01) stood at 12.5 µM. Further, the “Protective effect on HT-22 cells compared with BAY 60-7550” value with HT-22 cells (comparison with BAY 60-7550 at 1.0 μM) is listed as “similar; also recorded: comparable activity”.

With `COc1ccc2c(c1)c(=O)oc1cc(OCCSC)ccc12` [Compound 2i, 8-Methoxy-3-(2-(methylthio)ethoxy)-6H-benzo[c]chromen-6-one], the melting point was 110.1 to 111.8 °C. The “PDE2 inhibitory activity (result in words)” value at PDE2 is given as “best PDE2 inhibitory activity; also recorded: good PDE2 inhibitory activity”. The same compound returned an IC50 against PDE2 (setting [1]) of 14.9 ± 1.78 µM.

In turn, `COc1ccc2c(c1)c(=O)oc1cc(OCC3CCCO3)ccc12` (stereo not shown) [Compound 2l, 8-Methoxy-3-((tetrahydrofuran-2-yl)methoxy)-6H-benzo[c]chromen-6-one] returned a melting point of 113.1 to 115.5 °C. The compound also gave an IC50 against PDE2 (setting [1]) of over 50 µM.

In the case of `COc1ccc2c(c1)c(=O)oc1cc(OCC3OCCO3)ccc12` [Compound 2m, 3-((1,3-Dioxolan-2-yl)methoxy)-8-methoxy-6H-benzo[c]chromen-6-one], the melting point was in the range of 147.9 to 150.1 °C. In addition, at PDE2 (setting [1]), the IC50 was over 50 µM.

As for `COc1ccc2c(c1)c(=O)oc1cc(OCC3CCCCC3)ccc12` [Compound 2n, 3-(Cyclohexylmethoxy)-8-methoxy-6H-benzo[c]chromen-6-one], the melting point was in the range of 139.8 to 140.1 °C. On PDE2 (setting [1]), this compound registered a half-inhibitory concentration (IC50) of over 50 µM.

`COc1ccc2c(c1)c(=O)oc1cc(OCCC3OCCO3)ccc12` [Compound 2o, 3-(2-(1,3-Dioxolan-2-yl)ethoxy)-8-methoxy-6H-benzo[c]chromen-6-one]: the melting point lay in the range of 151.6 to 153.2 °C. Besides, at PDE2 (setting [1]), the IC50 is over 50 µM.

For the compound `COc1ccc2c(c1)c(=O)oc1cc(OCC3CCOCC3)ccc12` [Compound 2p, 8-Methoxy-3-((tetrahydro-2H-pyran-4-yl)methoxy)-6H-benzo[c]chromen-6-one], the melting point fell in the range of 168.1 to 168.5 °C. Besides, the IC50 against PDE2 (setting [1]) was found to be 25.2 ± 6.91 µM.

In turn, `COc1ccc2c(c1)c(=O)oc1cc(OCc3ccccc3)ccc12` [Compound 2q, 3-(Benzyloxy)-8-methoxy-6H-benzo[c]chromen-6-one] had a melting point of 141.7 to 142.5 °C. Half-maximal inhibition against PDE2 (setting [1]) (IC50) required 23.3 ± 4.28 µM.

`COc1ccc2c(c1)c(=O)oc1cc(OCc3ccc(CO)cc3)ccc12` [Compound 2r, 3-((4-[Hydroxymethyl]benzyl)oxy)-8-methoxy-6H-benzo[c]chromen-6-one] gave a melting point of 192.4 to 194.6 °C. On PDE2 (setting [1]), this compound gave an IC50 of over 50 µM.

As to `COc1cc(COc2ccc3c(c2)oc(=O)c2cc(OC)ccc23)cc(OC)c1` [Compound 2s, 3-((3,5-Dimethoxybenzyl)oxy)-8-methoxy-6H-benzo[c]chromen-6-one], the melting point fell in the range of 153.6 to 155.3 °C. The compound also came in with an IC50 against PDE2 (setting [1]) of over 50 µM.

On to `COc1ccc2c(c1)c(=O)oc1cc(OCc3ccccc3F)ccc12` [Compound 2t, 3-((2-Fluorobenzyl)oxy)-8-methoxy-6H-benzo[c]chromen-6-one], for which the melting point is 203.6 to 204.9 °C. The “PDE2 IC50” value at PDE2 (setting [1]) is “Insoluble”.

On to `COc1ccc2c(c1)c(=O)oc1cc(OCc3cc(C)nn3C)ccc12` [Compound 2u, 3-((1,3-Dimethyl-1H-pyrazol-5-yl)methoxy)-8-methoxy-6H-benzo[c]chromen-6-one], for which the melting point lay within 184.6 to 186.6 °C. At PDE2 (setting [1]), this compound gave an IC50 of 29.4 ± 5.01 µM.

In turn, `COc1ccc2c(c1)c(=O)oc1cc(OCCn3cccn3)ccc12` [Compound 2w, 3-(2-(1H-pyrazol-1-yl)ethoxy)-8-methoxy-6H-benzo[c]chromen-6-one] came in with a melting point of 159 to 161.1 °C. Moreover, the IC50 at PDE2 (setting [1]) is over 50 µM.
